# Experimental data published in ChEMBL document CHEMBL1131790, “Structure-based design and synthesis of novel thrombin inhibitors based on phosphinic peptide mimetics” (Bioorg Med Chem Lett, 1999).
# Target: Prothrombin (Homo sapiens, UniProt P00734)
# Assay: In vitro inhibitory activity against thrombin
row,IC50 [µM],Compound
1,70,COc1ccc(C[C@@H](NC(=O)[C@@H](Cc2ccc3ccccc3c2)NC(=O)OCc2ccccc2)P(=O)(O)c2ccccc2)cc1
2,7.5,CC(=O)N[C@H](Cc1c[nH]c2ccccc12)C(=O)N[C@H](Cc1ccc(C(=N)N)cc1)P(=O)(O)c1ccccc1
3,0.6,N=C(N)c1ccc(C[C@@H](NC(=O)[C@H](N)Cc2ccc3ccccc3c2)P(=O)(O)c2ccccc2)cc1
4,3.6,N=C(N)c1ccc(C[C@@H](NC(=O)[C@@H](Cc2ccc3ccccc3c2)NC(=O)OCc2ccccc2)P(=O)(O)c2ccccc2)cc1
